Literature values as cited in patent EP3572069A1, “INCREASING SOLUBILITY AND BIOAVAILABILITY OF ENZALUTAMIDE” (Zentiva K.S., priority 2018, dated 2019).

Assays:
[1] = background statement, no test described
[2] = not told

Solubility [1]	Permeability [2]	Structure (SMILES)
dissolves better	–	CNC(=O)c1ccc(N2C(=S)N(c3ccc(C#N)c(C(F)(F)F)c3)C(=O)C2(C)C)cc1F [Amorphous form of enzalutamide, 4-(3-(4-cyano-3-(trifluoromethyl)phenyl)-5,5-dimethyl-4-oxo-2-thioxo-1-imidazolidinyl)-2-fluoro-N-methyl-benzamide]
very poorly soluble	–	CNC(=O)c1ccc(N2C(=S)N(c3ccc(C#N)c(C(F)(F)F)c3)C(=O)C2(C)C)cc1F [Crystalline enzalutamide, 4-(3-(4-cyano-3-(trifluoromethyl)phenyl)-5,5-dimethyl-4-oxo-2-thioxo-1-imidazolidinyl)-2-fluoro-N-methyl-benzamide]
–	high permeability	CNC(=O)c1ccc(N2C(=S)N(c3ccc(C#N)c(C(F)(F)F)c3)C(=O)C2(C)C)cc1F [Enzalutamide, 4-(3-(4-cyano-3-(trifluoromethyl)phenyl)-5,5-dimethyl-4-oxo-2-thioxo-1-imidazolidinyl)-2-fluoro-N-methyl-benzamide]
